Data: US20240009219A1, “COMPOSITIONS AND METHODS USING A COMBINATION OF OLEUROPEIN AND NICOTINAMIDE RIBOSIDE FOR CELLULAR ENERGY” (SOCIETE DES PRODUITS NESTLE S.A., priority 2020, published 2024)

Assays:
[1] = tested on: myotubes differentiated from C2C12 cells; test: Mitochondrial calcium measurement with mitochondrially targeted aequorin, caffeine stimulation; assay type: cell-based; conditions: NAD+-containing myotubes; Oea 10 μM, NR 0.5 mM; n=6
Method: C2C12 cells were purchased from ATCC. C2C12 cells were seeded in 96-well plates at a density of 15 000 cells per well in DMEM high glucose (Gibco)+10% fetal calf serum. Myotubes were differentiated from C2C12 cells by growing the cells in DMEM containing 2% horse serum, for 6 days. Mitochondrial calcium measurements were carried out using myotubes infected with the adenovirus (from Sirion biotech) expressing the mitochondrially targeted calcium sensor mitochondrial mutated aequorin (Montero et al., 2004). For aequorin reconstitution, 48 hours after infection, cells or myotubes were incubated for 2 h at room temperature (22±° C.) in standard medium (145 mM NaCl, 5 mM KCl, 1 mM MgCl2, 1 mM CaCl2, 10 mM glucose and 10 mM Hepes, pH 7.4) with 1 μM wild-type coelenterazine. Myotubes were stimulated with 5 mM of caffeine and the total calcium transition during stimulation was calculated as the area under the curve. […] Luminescence was measured at the Cytation 3 cell imaging reader (Biotek). Calibration of the luminescence data into Calcium concentration was carried out using an algorithm as described previously (Alvarez & Montero, 2002). Custom module analysis based on Excel (Microsoft) and GraphPad Prism 7.02 (GraphPad) software was used for quantification.

[2] = tested on: myotubes differentiated from C2C12 cells; test: NAD+ measurement (NAD/NADH Quantification Kit); assay type: cell-based; conditions: NAD+-depleted myotubes; NR 0.5 mM, Oea 10 μM; n=6
Method: C2C12 cells were purchased from ATCC. C2C12 cells were seeded in 96-well plates at a density of 15 000 cells per well in DMEM high glucose (Gibco)+10% fetal calf serum. Myotubes were differentiated from C2C12 cells by growing the cells in DMEM containing 2% horse serum, for 6 days.
To obtain a condition of restrictions of NAD bioavailability, C2C12-derived myotubes were treated with 1 μM of FK866, an NAMPT inhibitor, for 3 days before experiment. Luminescence was measured at the Cytation 3 cell imaging reader (Biotek). Calibration of the luminescence data into Calcium concentration was carried out using an algorithm as described previously (Alvarez & Montero, 2002). Custom module analysis based on Excel (Microsoft) and GraphPad Prism 7.02 (GraphPad) software was used for quantification.
NAD^+ measurements were carried out using myotubes treated as previous described and quantifying with NAD/NADH Quantification Kit (Sigma-Aldrich).

[3] = tested on: C. elegans; test: C. elegans lifespan test; assay type: in vivo, Caenorhabditis elegans; conditions: treated from day 1 of adulthood; NR 100 μM, Oae 200 μM, wild type N2 worms
Method: C. elegans lifespan tests were performed using about 100 animals per condition and scored manually every other day. The experimental measurements of the effect of nicotinamide riboside, oleuropein aglycone, and the combination NR+Oae treatment were started at day 1 of wild type N2 worm adulthood, in a regimen of chronic exposure till experiments termination.

SMILES: C/C=C1/C(O)OC=C(C(=O)OC)[C@H]1CC(=O)OCCc1ccc(O)c(O)c1 (mixture of isomers) [Oleuropein aglycone, oleuropein aglycone]
- integrated mitochondrial calcium rise, evoked by 5 mM caffeine [1]: activates mitochondria via mitochondrial Ca^2+ rise
- NAD production [2]: does not boosts NAD production
- mean lifespan extension [3]: 10%

SMILES: NC(=O)c1ccc[n+]([C@@H]2O[C@H](CO)[C@@H](O)[C@H]2O)c1 [Nicotinamide riboside, nicotinamide riboside]
- integrated mitochondrial calcium rise, evoked by 5 mM caffeine [1]: does not boost mitochondrial Ca^2+ rise
- mean lifespan extension [3]: 5%
